{"source": "ChEMBL document CHEMBL3745637", "about": "“New hybrid molecules with anticonvulsant and antinociceptive activity derived from 3-methyl- or 3,3-dimethyl-1-[1-oxo-1-(4-phenylpiperazin-1-yl)propan-2-yl]pyrrolidine-2,5-diones” (Bioorg Med Chem, 2016)", "key": {"[1]": {"species_on_record": "Rattus norvegicus", "test": "Displacement of [3H]nitrendipine from calcium channel L-Type dihydropyridine site in rat cerebral cortex at 100 uM after 120 mins by scintillation counting method", "format": "tissue-based"}, "[2]": {"system": "Mus musculus", "test": "Anticonvulsant activity against ip dosed Swiss mouse seizure model assessed as protection at 0.5 hrs by 6 Hz psychomotor seizure test", "format": "functional"}, "[3]": {"system": "Mus musculus", "test": "Anticonvulsant activity against ip dosed Swiss mouse seizure model assessed as protection at 0.25 hrs by 6 Hz psychomotor seizure test", "format": "functional"}, "[4]": {"target": "T1, Glutamate NMDA receptor (Rattus norvegicus) (UniProt P35439+Q00959+Q00960+Q00961+Q62645+Q8VHN2+Q9R1M7)", "test": "Displacement of [3H]CGP-39653 from NMDA receptor in rat cerebral cortex at 100 uM after 60 mins by scintillation counting method", "format": "tissue-based"}, "[5]": {"system": "Mus musculus", "test": "Anticonvulsant activity in ip dosed Swiss mouse assessed as protection against maximal electroshock-induced seizures at 0.5 hrs", "format": "functional"}, "[6]": {"species_on_record": "Rattus norvegicus", "test": "Displacement of [3H]Batrachotoxinin from sodium channel site 2 in rat cerebral cortex at 100 uM after 60 mins by scintillation counting method", "format": "tissue-based"}, "[7]": {"test": "Neurotoxicity in ip dosed Swiss mouse seizure model assessed as motor impairment pretreated for 0.25 hrs measured within 60 s by chimney test", "format": "toxicity, organism-based", "settings": "in vivo"}, "[8]": {"system": "Mus musculus", "test": "Anticonvulsant activity in ip dosed Swiss mouse assessed as prolong latency to first seizure episode pretreated for 0.5 hrs measured after 30 mins by subcutaneous pentylenetetrazole seizure test", "format": "functional, organism-based"}, "[9]": {"system": "Mus musculus", "test": "Anticonvulsant activity in ip dosed Swiss mouse assessed as reduction in clonic seizures at 0.25 hrs by subcutaneous pentylenetetrazole seizure test", "format": "functional"}, "[10]": {"test": "Protective index, ratio of TD50 for neurotoxicity in ip dosed Swiss mouse to ED50 for anticonvulsant activity in ip dosed scPTZ Swiss mouse model at 0.5 hrs", "format": "toxicity, organism-based", "settings": "in vivo, read-out: Ratio TD50/ED50"}, "[11]": {"system": "Mus musculus", "test": "Antinociceptive activity in ip dosed Swiss mouse assessed as reduction of formalin-induced licking at MES ED50 pretreated for 0.5 hrs measured during 1 to 5 mins", "format": "functional, organism-based"}, "[12]": {"system": "Mus musculus", "test": "Anticonvulsant activity in ip dosed Swiss mouse assessed as protection against maximal electroshock-induced seizures at 0.25 hrs", "format": "functional"}, "[13]": {"system": "Mus musculus", "test": "Antinociceptive activity in ip dosed Swiss mouse assessed as reduction of formalin-induced licking at MES ED50 pretreated for 0.5 hrs measured during 15 to 20 mins", "format": "functional", "design": "scale not given: the % may be the effect or the level left"}, "[14]": {"system": "Mus musculus", "test": "Anticonvulsant activity against Swiss mouse seizure model assessed as protection at 100 mg/kg, ip pretreated for 0.5 hrs by 6 Hz psychomotor seizure test", "format": "functional, organism-based"}, "[15]": {"system": "Mus musculus", "test": "Potency index, ratio of ethosuximide ED50 to compound ED50 for anticonvulsant activity in ip dosed scPTZ Swiss mouse model at 0.25 hrs", "format": "functional"}, "[16]": {"test": "Protective index, ratio of TD50 for neurotoxicity in ip dosed Swiss mouse to ED50 for anticonvulsant activity in ip dosed MES Swiss mouse model at 0.5 hrs", "format": "toxicity, organism-based", "settings": "in vivo, read-out: Ratio TD50/ED50"}, "[17]": {"test": "Protective index, ratio of TD50 for neurotoxicity in ip dosed Swiss mouse to ED50 for anticonvulsant activity in ip dosed MES Swiss mouse model at 0.25 hrs", "format": "toxicity, organism-based", "settings": "in vivo, read-out: Ratio TD50/ED50"}, "[18]": {"test": "Neurotoxicity in ip dosed Swiss mouse seizure model assessed as motor impairment pretreated for 0.5 hrs measured within 60 s by chimney test", "format": "toxicity, organism-based", "settings": "in vivo"}, "[19]": {"system": "Mus musculus", "test": "Anticonvulsant activity in Swiss mouse assessed as protection against maximal electroshock-induced seizures at 100 mg/kg, ip pretreated for 2 hrs", "format": "functional, organism-based"}, "[20]": {"system": "Mus musculus", "test": "Anticonvulsant activity in ip dosed Swiss mouse assessed as reduction in clonic seizures at 0.5 hrs by subcutaneous pentylenetetrazole seizure test", "format": "functional"}, "[21]": {"test": "Protective index, ratio of TD50 for neurotoxicity in ip dosed Swiss mouse to ED50 for anticonvulsant activity in ip dosed scPTZ Swiss mouse model at 0.25 hrs", "format": "toxicity, organism-based", "settings": "in vivo, read-out: Ratio TD50/ED50"}, "[22]": {"system": "Mus musculus", "test": "Anticonvulsant activity in Swiss mouse assessed as protection against maximal electroshock-induced seizures at 300 mg/kg, ip pretreated for 2 hrs", "format": "functional, organism-based"}, "[23]": {"system": "Mus musculus", "test": "Anticonvulsant activity in Swiss mouse assessed as prolong latency to first seizure episode at 60 mg/kg pretreated for 0.5 hrs measured after 30 mins by subcutaneous pentylenetetrazole seizure test", "format": "functional, organism-based"}, "[24]": {"system": "Mus musculus", "test": "Anticonvulsant activity against Swiss mouse seizure model assessed as protection at 100 mg/kg, ip pretreated for 0.25 hrs by 6 Hz psychomotor seizure test", "format": "functional, organism-based"}, "[25]": {"test": "Protective index, ratio of TD50 for neurotoxicity in ip dosed Swiss mouse to ED50 for anticonvulsant activity in ip dosed Swiss mouse 6 Hz psychomotor seizure model at 0.25 hrs", "format": "toxicity, organism-based", "settings": "in vivo, read-out: Ratio TD50/ED50"}, "[26]": {"species_on_record": "Rattus norvegicus", "test": "Displacement of [3H]Batrachotoxinin from sodium channel site 2 in rat cerebral cortex at 500 uM after 60 mins by scintillation counting method", "format": "tissue-based"}, "[27]": {"target": "T1, Glutamate NMDA receptor (Rattus norvegicus)", "test": "Displacement of [3H]CGP-39653 from NMDA receptor in rat cerebral cortex at 500 uM after 60 mins by scintillation counting method", "format": "tissue-based"}, "[28]": {"system": "Mus musculus", "test": "Anticonvulsant activity in Swiss mouse assessed as protection against maximal electroshock-induced seizures at 300 mg/kg, ip pretreated for 0.5 hrs", "format": "functional, organism-based"}, "[29]": {"test": "Protective index, ratio of TD50 for neurotoxicity in ip dosed Swiss mouse to ED50 for anticonvulsant activity in ip dosed Swiss mouse 6 Hz psychomotor seizure model at 0.5 hrs", "format": "toxicity, organism-based", "settings": "in vivo, read-out: Ratio TD50/ED50"}, "[30]": {"species_on_record": "Rattus norvegicus", "test": "Displacement of [3H]nitrendipine from calcium channel L-Type dihydropyridine site in rat cerebral cortex at 500 uM after 120 mins by scintillation counting method", "format": "tissue-based"}}, "note": "Active and inactive are the calls of the source. No cut-off for these calls is given here.", "data": [{"smiles": "CC1CC(=O)N(C(C)C(=O)N2CCN(c3cccc(C(F)(F)F)c3)CC2)C1=O", "note": "(stereo not given)", "values": [{"measurement": "inhibition", "setting": "[1]", "value": 38.1, "unit": "%"}, {"measurement": "ED50", "setting": "[2]", "value": 16.8, "unit": "mg/kg"}, {"measurement": "ED50", "setting": "[3]", "value": 24.6, "unit": "mg/kg"}, {"measurement": "Activity", "setting": "[4]", "value": "inactive"}, {"measurement": "ED50", "setting": "[5]", "value": 74.8, "unit": "mg/kg"}, {"measurement": "inhibition", "setting": "[6]", "value": 29.9, "unit": "%"}, {"measurement": "TD50 at 0.25 h", "setting": "[7]", "value": 285, "unit": "mg/kg"}, {"measurement": "Activity", "setting": "[8]", "value": "Dose-dependent effect"}, {"measurement": "ED50", "setting": "[9]", "value": 65.7, "unit": "mg/kg"}, {"measurement": "selectivity ratio at 0.5 h", "setting": "[10]", "value": 4.13}, {"measurement": "Activity", "setting": "[11]", "value": "inactive"}, {"measurement": "ED50", "setting": "[12]", "value": 81.7, "unit": "mg/kg"}, {"measurement": "Activity", "setting": "[13]", "value": 84, "unit": "%"}, {"measurement": "Activity", "setting": "[14]", "value": "Active"}, {"measurement": "Ratio ED50", "setting": "[15]", "value": 2.2}, {"measurement": "selectivity ratio at 0.5 h", "setting": "[16]", "value": 2.85}, {"measurement": "selectivity ratio at 0.25 h", "setting": "[17]", "value": 3.49}, {"measurement": "TD50 at 0.5 h", "setting": "[18]", "value": 213, "unit": "mg/kg"}, {"measurement": "Activity", "setting": "[19]", "value": "inactive"}, {"measurement": "ED50", "setting": "[20]", "value": 51.6, "unit": "mg/kg"}, {"measurement": "selectivity ratio at 0.25 h", "setting": "[21]", "value": 4.33}, {"measurement": "Activity", "setting": "[22]", "value": "Active"}, {"measurement": "Activity", "setting": "[23]", "value": "Active"}, {"measurement": "Activity", "setting": "[24]", "value": "Active"}, {"measurement": "selectivity ratio at 0.25 h", "setting": "[25]", "value": 11.6}, {"measurement": "inhibition", "setting": "[26]", "value": 76.3, "unit": "%"}, {"measurement": "Activity", "setting": "[27]", "value": "inactive"}, {"measurement": "Activity", "setting": "[28]", "value": "Active"}, {"measurement": "selectivity ratio at 0.5 h", "setting": "[29]", "value": 12.7}, {"measurement": "inhibition", "setting": "[30]", "value": 78.5, "unit": "%"}]}]}
